Experiments:
[1] = system: wheat; assay: Test A pre-/postemergence herbicide test; format: in vivo, Triticum aestivum; conditions: Postemergence
How it was run: (§1)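 Scoring was visual, relative to untreated controls, on a 0–100 scale after about 10 greenhouse days. Preemergence treatment used a directed soil spray over seeded loam/sand; postemergence treatment targeted one- to two-leaf plants of 2–10 cm.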

[2] = system: pigweed; assay: Test C pre-/postemergence herbicide test; format: in vivo, Amaranthus retroflexus
How it was run: (§2)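 Response scores range from 0, meaning no effect, to 100, meaning complete control, assigned visually by comparison with controls roughly two weeks (13 to 15 days) after spraying. Applications were made preemergence to seeded loam–sand soil and postemergence to 1- to 4-leaf plants.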

[3] = system: blackgrass; assay: Test C pre-/postemergence herbicide test; format: in vivo, Alopecurus myosuroides
How it was run: as §2

[4] = system: barnyardgrass; assay: Test C pre-/postemergence herbicide test; format: in vivo, Echinochloa crus-galli
How it was run: as §2

[5] = system: oilseed rape; assay: Test C pre-/postemergence herbicide test; format: in vivo, Brassica napus
How it was run: as §2

[6] = system: lambsquarters; assay: Test C pre-/postemergence herbicide test; format: in vivo, Chenopodium album
How it was run: as §2

[7] = system: ducksalad; assay: Test B flooded paddy test; format: in vivo, Heteranthera limosa; conditions: 500 g ai/ha, Flood; scale of 0 to 100 where 0 is no effect and 100 is complete control
How it was run: (§3)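 Scored visually 0–100 (0 no effect, 100 complete control) versus controls after 13 to 15 greenhouse days. Treatment: compound added to paddy water kept 3 cm above soil, on 2-leaf-stage plants.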

[8] = system: nutsedge, yellow; assay: Test C pre-/postemergence herbicide test; format: in vivo, Cyperus esculentus
How it was run: as §2

[9] = system: barnyardgrass; assay: Test B flooded paddy test; format: in vivo, Echinochloa crus-galli; conditions: 500 g ai/ha, Flood; scale of 0 to 100 where 0 is no effect and 100 is complete control
How it was run: as §3

[10] = system: rice; assay: Test B flooded paddy test; format: in vivo, Oryza sativa; conditions: 500 g ai/ha, Flood; scale of 0 to 100 where 0 is no effect and 100 is complete control
How it was run: as §3

[11] = system: crabgrass, large; assay: Test C pre-/postemergence herbicide test; format: in vivo, Digitaria sanguinalis
How it was run: as §2

[12] = system: giant foxtail; assay: Test A pre-/postemergence herbicide test; format: in vivo, Setaria faberii
How it was run: as §1

[13] = 125 g ai/ha, visual rating on 0 to 100 scale (0 no effect, 100 complete control), approx. 10 days
[14] = 500 g ai/ha, 0 to 100 scale (0 no effect, 100 complete control)
[15] = Postemergence, 31 g ai/ha, scale 0 to 100 (0 no effect, 100 complete control)
[16] = Postemergence, 62 g ai/ha, scale 0 (no effect) to 100 (complete control)
[17] = Postemergence, 125 g ai/ha, scale 0 to 100 (0 no effect, 100 complete control)
[18] = Postemergence, 250 g ai/ha, scale 0 to 100 (0 no effect, 100 complete control)
[19] = Preemergence, 31 g ai/ha, scale 0 to 100, 0 is no effect and 100 is complete control
[20] = Preemergence, 62 g ai/ha, scale 0 to 100 (0 no effect, 100 complete control)
[21] = Preemergence, 125 g ai/ha, scale 0 to 100
[22] = Preemergence, 125 g ai/ha, scale 0 to 100 (0 no effect, 100 complete control)
[23] = Postemergence, 125 g ai/ha, visual rating on 0 to 100 scale (0 no effect, 100 complete control), approx. 10 days
[24] = Postemergence, 500 g ai/ha, 0 to 100 scale (0 no effect, 100 complete control)
[25] = Preemergence, 125 g ai/ha, 0 to 100 scale where 0 is no effect and 100 is complete control
[26] = Preemergence, 500 g ai/ha, visual rating on 0 to 100 scale (0 no effect, 100 complete control)

SMILES: O=C1NCC(c2cccc(C(F)(F)F)c2)C1C(=O)Nc1ccc(F)c(F)c1F (stereo not drawn) [Compound 315]
- Plant response rating, Wheat [1, 13]: 60
- Plant response rating, Wheat [1, 14]: 70
- Plant response rating, Pigweed [2, 15]: 25
- Plant response rating, Pigweed [2, 16]: 65
- Plant response rating, Pigweed [2, 17]: 65
- Plant response rating, Pigweed [2, 18]: 80
- Pigweed plant response rating [2, 19]: 45
- Pigweed plant response rating [2, 20]: 60
- Plant response rating, Pigweed [2, 21]: 75
- Plant response rating (scale of 0 to 100), Pigweed ([2]; Preemergence, 250 g ai/ha): 85
- Plant response rating, Blackgrass [3, 15]: 0
- Plant response rating, Blackgrass [3, 16]: 0
- Plant response rating, Blackgrass [3, 17]: 30
- Plant response rating, Blackgrass [3, 18]: 25
- Blackgrass plant response rating [3, 19]: 60
- Blackgrass plant response rating [3, 20]: 60
- Plant response rating, Blackgrass [3, 21]: 65
- Plant response rating (scale of 0 to 100), Blackgrass ([3]; Preemergence, 250 g ai/ha): 85
- Plant response rating, Barnyardgrass [4, 15]: 25
- Plant response rating, Barnyardgrass [4, 16]: 65
- Plant response rating, Barnyardgrass [4, 17]: 70
- Plant response rating, Barnyardgrass [4, 18]: 85
- Barnyardgrass plant response rating [4, 19]: 90
- Barnyardgrass plant response rating [4, 20]: 90
- Plant response rating, Barnyardgrass [4, 22]: 90
- Plant response rating (scale of 0 to 100; 0 is no effect, 100 is complete control), Barnyardgrass ([4]; Preemergence, 250 g ai/ha): 95
- Plant response rating, Oilseed Rape [5, 15]: 0
- Plant response rating, Oilseed Rape [5, 16]: 0
- Plant response rating, Oilseed Rape [5, 17]: 0
- Plant response rating, Oilseed Rape [5, 18]: 10
- Oilseed Rape plant response rating [5, 19]: 5
- Oilseed Rape plant response rating [5, 20]: 30
- Plant response rating, Oilseed Rape [5, 21]: 85
- Plant response rating (scale of 0 to 100), Oilseed Rape ([5]; Preemergence, 250 g ai/ha): 80
- Plant response rating, Lambsquarters [6, 15]: 60
- Plant response rating, Lambsquarters [6, 16]: 60
- Plant response rating, Lambsquarters [6, 17]: 65
- Plant response rating, Lambsquarters [6, 18]: 80
- Lambsquarters plant response rating [6, 19]: 40
- Lambsquarters plant response rating [6, 20]: 40
- Plant response rating, Lambsquarters [6, 21]: 70
- Plant response rating (scale of 0 to 100), Lambsquarters ([6]; Preemergence, 250 g ai/ha): 80
- Plant response rating, Ducksalad [7]: 100
- Plant response rating, Nutsedge, Yellow [8, 15]: 0
- Plant response rating, Nutsedge, Yellow [8, 16]: 0
- Plant response rating, Nutsedge, Yellow [8, 17]: 0
- Plant response rating, Nutsedge, Yellow [8, 18]: 0
- Nutsedge, Yellow plant response rating [8, 19]: 0
- Nutsedge, Yellow plant response rating [8, 20]: 0
- Plant response rating, Nutsedge, Yellow [8, 21]: 20
- Plant response rating (scale of 0 to 100), Nutsedge, Yellow ([8]; Preemergence, 250 g ai/ha): 20
- Plant response rating, Barnyardgrass [9]: 70
- Plant response rating, Rice [10]: 15
- Plant response rating, Crabgrass, Large [11, 15]: 55
- Plant response rating, Crabgrass, Large [11, 16]: 65
- Plant response rating, Crabgrass, Large [11, 17]: 70
- Plant response rating, Crabgrass, Large [11, 18]: 75
- Crabgrass, Large plant response rating [11, 19]: 90
- Crabgrass, Large plant response rating [11, 20]: 95
- Plant response rating, Crabgrass, Large [11, 21]: 95
- Plant response rating (scale of 0 to 100), Crabgrass, Large ([11]; Preemergence, 250 g ai/ha): 98
- Plant response rating, Foxtail, Giant [12, 23]: 90
- Plant response rating, Foxtail, Giant [12, 24]: 90
- Plant response rating, Foxtail, Giant [12, 25]: 90
- Foxtail, Giant plant response rating [12, 26]: 90

SMILES: O=C1NCC(c2cccc(C(F)(F)F)c2)C1C(=O)Nc1cccc(Cl)c1F (stereo not drawn) [Compound 316]
- Plant response rating, Wheat [1, 13]: 20
- Plant response rating, Wheat [1, 14]: 40
- Plant response rating, Pigweed [2, 15]: 15
- Plant response rating, Pigweed [2, 16]: 50
- Plant response rating, Pigweed [2, 17]: 60
- Plant response rating, Pigweed [2, 18]: 75
- Pigweed plant response rating [2, 19]: 25
- Pigweed plant response rating [2, 20]: 25
- Plant response rating, Pigweed [2, 21]: 45
- Plant response rating, Blackgrass [3, 15]: 0
- Plant response rating, Blackgrass [3, 16]: 0
- Plant response rating, Blackgrass [3, 17]: 0
- Plant response rating, Blackgrass [3, 18]: 0
- Blackgrass plant response rating [3, 19]: 0
- Blackgrass plant response rating [3, 20]: 0
- Plant response rating, Blackgrass [3, 21]: 30
- Plant response rating (scale of 0 to 100), Blackgrass ([3]; Preemergence, 250 g ai/ha): 60
- Plant response rating, Barnyardgrass [4, 15]: 10
- Plant response rating, Barnyardgrass [4, 16]: 35
- Plant response rating, Barnyardgrass [4, 17]: 60
- Plant response rating, Barnyardgrass [4, 18]: 70
- Barnyardgrass plant response rating [4, 19]: 85
- Barnyardgrass plant response rating [4, 20]: 85
- Plant response rating, Barnyardgrass [4, 22]: 90
- Plant response rating (scale of 0 to 100; 0 is no effect, 100 is complete control), Barnyardgrass ([4]; Preemergence, 250 g ai/ha): 90
- Plant response rating, Oilseed Rape [5, 15]: 0
- Plant response rating, Oilseed Rape [5, 16]: 0
- Plant response rating, Oilseed Rape [5, 17]: 0
- Plant response rating, Oilseed Rape [5, 18]: 0
- Oilseed Rape plant response rating [5, 19]: 0
- Oilseed Rape plant response rating [5, 20]: 0
- Plant response rating, Oilseed Rape [5, 21]: 20
- Plant response rating (scale of 0 to 100), Oilseed Rape ([5]; Preemergence, 250 g ai/ha): 60
- Plant response rating, Lambsquarters [6, 15]: 55
- Plant response rating, Lambsquarters [6, 16]: 65
- Plant response rating, Lambsquarters [6, 17]: 40
- Plant response rating, Lambsquarters [6, 18]: 65
- Lambsquarters plant response rating [6, 19]: 0
- Lambsquarters plant response rating [6, 20]: 20
- Plant response rating, Lambsquarters [6, 21]: 65
- Plant response rating (scale of 0 to 100), Lambsquarters ([6]; Preemergence, 250 g ai/ha): 65
- Plant response rating, Ducksalad [7]: 100
- Plant response rating, Nutsedge, Yellow [8, 15]: 0
- Plant response rating, Nutsedge, Yellow [8, 16]: 0
- Plant response rating, Nutsedge, Yellow [8, 17]: 0
- Plant response rating, Nutsedge, Yellow [8, 18]: 0
- Nutsedge, Yellow plant response rating [8, 19]: 0
- Nutsedge, Yellow plant response rating [8, 20]: 0
- Plant response rating, Nutsedge, Yellow [8, 21]: 0
- Plant response rating (scale of 0 to 100), Nutsedge, Yellow ([8]; Preemergence, 250 g ai/ha): 70
- Plant response rating, Barnyardgrass [9]: 60
- Plant response rating, Rice [10]: 0
- Plant response rating, Crabgrass, Large [11, 15]: 0
- Plant response rating, Crabgrass, Large [11, 16]: 50
- Plant response rating, Crabgrass, Large [11, 17]: 60
- Plant response rating, Crabgrass, Large [11, 18]: 70
- Crabgrass, Large plant response rating [11, 19]: 90
- Crabgrass, Large plant response rating [11, 20]: 95
- Plant response rating, Crabgrass, Large [11, 21]: 95
- Plant response rating (scale of 0 to 100), Crabgrass, Large ([11]; Preemergence, 250 g ai/ha): 98
- Plant response rating, Foxtail, Giant [12, 23]: 90
- Plant response rating, Foxtail, Giant [12, 24]: 90
- Plant response rating, Foxtail, Giant [12, 25]: 90
- Foxtail, Giant plant response rating [12, 26]: 90

Reference: patent US10294202B2, “Pyrrolidinones as herbicides” (FMC Corporation, priority 2013, dated 2019)
